Among the data in article PMC6021032, “Antimycobacterial activity of nitrogen heterocycles derivatives: 7-(pyridine-4-yl)-indolizine derivatives. Part VII^8–12” (Journal of Enzyme Inhibition and Medicinal Chemistry, 2017) are IC50, IC90 and MIC values, retold here.

Values after ≈ are worked out from the molar mass of the structure shown. Where two headings read alike, the source gives them in different places.

Experiment in all cases: microbe, parasite or virus in culture
What all share (format): cell-based, Mycobacterium tuberculosis

Test [1] deals with rifampicin resistant strain RIF-R2.
Test [2] has as its system isoniazid resistant strain INH-R1.
Test [3] deals with fluoroquinolone resistant strain FQ-R1.
For test [4], the system named is isoniazid resistant strain INH-R2.
For test [5], the system named is rifampicin resistant strain RIF-R1.
Where [6] appears, read: Mycobacterium tuberculosis, RIFR2, read-out: IC50.
Setting [7] is: Mycobacterium tuberculosis, RIFR2, read-out: IC90.
Setting [8] is: Mycobacterium tuberculosis, RIFR2, read-out: MIC.
Setting [9] is: Mycobacterium tuberculosis, INHR1.
Setting [10] is: Mycobacterium tuberculosis, FQR1, read-out: IC50.
[11] abbreviates: Mycobacterium tuberculosis, FQR1, read-out: IC90.
[12] abbreviates: Mycobacterium tuberculosis, FQR1, read-out: MIC.
Where [13] appears, read: Mycobacterium tuberculosis, INHR2.
The mark [14] stands for this setting: Mycobacterium tuberculosis, RIFR1, read-out: IC50.
Where [15] appears, read: Mycobacterium tuberculosis, RIFR1, read-out: IC90.
[16] abbreviates: Mycobacterium tuberculosis, RIFR1, read-out: MIC.
Where [17] appears, read: Mycobacterium tuberculosis, RIFR2.
Setting [18] is: Mycobacterium tuberculosis, FQR1.
Where [19] appears, read: Mycobacterium tuberculosis, RIFR1.

As for `NNC(=O)c1ccncc1` [Isoniazid, reference compound], the IC50 is 0.27 µM in test [1] (setting [6]); above 200 µM in test [2] (setting [9]); 0.13 µM in test [3] (setting [10]); above 200 µM in test [4] (setting [13]); 0.063 µM in test [5] (setting [14]). The IC90 in test [1] (setting [7]) was 0.3 µM; in test [2] (setting [9]), above 200 µM; in test [3] (setting [11]) it was 0.15 µM; in test [4] (setting [13]), above 200 µM; in test [5] (setting [15]) it was 0.094 µM. Further, the MIC in test [1] (setting [8]) is 0.31 µM (≈ 0.0425 µg/mL); in test [2] (setting [9]) it was above 200 µM; in test [3] (setting [12]), 0.16 µM (≈ 0.0219 µg/mL); in test [4] (setting [13]), above 200 µM; in test [5] (setting [16]) it was 0.092 µM (≈ 0.0126 µg/mL).
Regarding `CCOC(=O)c1cc(C(=O)c2ccc(Cl)cc2)n2ccc(-c3cc[n+](CC(=O)c4cccc(OC)c4)cc3)cc12` [Compound 6d, 4-(3-(4-Chlorobenzoyl)-1-(ethoxycarbonyl)indolizine-7-yl)-1-(2-(3-methoxyphenyl)-2-oxoethyl)pyridin-1-ium], the IC50 in test [1] (setting [6]) came out at 12 µM; in test [2] (setting [9]) it was 14 µM; in test [3] (setting [10]), 21 µM; in test [4] (setting [13]), 15 µM; in test [5] (setting [14]), 12 µM. For the same compound, the IC90 worked out at 14 µM in test [1] (setting [7]); 36 µM in test [2] (setting [9]); 32 µM in test [3] (setting [11]); 35 µM in test [4] (setting [13]); 24 µM in test [5] (setting [15]). Further, the MIC turned out to be 16 µM in test [1] (setting [8]); 28 µM in test [2] (setting [9]); 32 µM in test [3] (setting [12]); 30 µM in test [4] (setting [13]); 22 µM in test [5] (setting [16]).
With `CCOC(=O)c1cc(C(=O)c2ccccc2)n2ccc(-c3cc[n+](CC(=O)c4ccc(C)cc4)cc3)cc12.[Br-]` [Compound 6a, 4-(3-Benzoyl-1-(ethoxycarbonyl)indolizine-7-yl)-1-(2-oxo-2-(p-tolyl)ethyl)pyridin-1-ium bromide], the IC50 in test [1] (setting [6]) amounted to 12 µM; in test [2] (setting [9]), 13 µM; in test [3] (setting [10]), 15 µM; in test [4] (setting [13]), 12 µM; in test [5] (setting [14]) it was 8.3 µM. For the same compound, the IC90 is 29 µM in test [1] (setting [7]); 35 µM in test [2] (setting [9]); 32 µM in test [3] (setting [11]); 22 µM in test [4] (setting [13]); 13 µM in test [5] (setting [15]). Also, the MIC came to 31 µM in test [1] (setting [8]); 33 µM in test [2] (setting [9]); 31 µM in test [3] (setting [12]); 19 µM in test [4] (setting [13]); 14 µM in test [5] (setting [16]).
As to `C[C@H]1COc2c(N3CCN(C)CC3)c(F)cc3c(=O)c(C(=O)O)cn1c23` [Levofloxacin, levofloxacin, reference compound], the IC50 in test [1] (setting [6]) worked out at 1.7 µM; in test [2] (setting [9]), 1.9 µM; in test [3] (setting [10]), 49 µM; in test [4] (setting [13]) it was 2.4 µM; in test [5] (setting [14]), 1.6 µM. Moreover, the IC90 in test [1] (setting [7]) stood at 3 µM; in test [2] (setting [9]) it was 3 µM; in test [3] (setting [11]), 110 µM; in test [4] (setting [13]) it was 4.3 µM; in test [5] (setting [15]), 2.6 µM. The MIC in test [1] (setting [8]) turned out to be 2.9 µM (≈ 1.05 µg/mL); in test [2] (setting [9]) it was 2.9 µM (≈ 1.05 µg/mL); in test [3] (setting [12]) it was 110 µM (≈ 39.8 µg/mL); in test [4] (setting [13]), 3.5 µM (≈ 1.26 µg/mL); in test [5] (setting [16]), 2.7 µM (≈ 0.976 µg/mL).
Regarding “4-[3-(4-Chlorophenyl)-1-(ethoxycarbonyl)indolizine-7-yl)-1-(2-(4-methoxyphenyl)-2-oxoethyl)pyridine-1-ium bromide [Compound 6c]”, the IC90 in test [1] (read-out: IC90) worked out at 12 µM; in test [2] (INH-R1, read-out: IC90), 14 µM; in test [3] (read-out: IC90) it was 16 µM; in test [4] (INH-R2, read-out: IC90), 19 µM; in test [5] (read-out: IC90) it was 10 µM. In addition, the MIC came to 13 µM in test [1] (read-out: MIC); 14 µM in test [2] (INH-R1); 16 µM in test [3] (read-out: MIC); 16 µM in test [4] (INH-R2); 10 µM in test [5] (read-out: MIC). The half-inhibitory concentration (IC50) was determined as 6.9 µM in test [2] (INH-R1, read-out: IC50); 8 µM in test [3] (read-out: IC50); 6.2 µM in test [4] (INH-R2, read-out: IC50); 6.5 µM in test [5] (read-out: IC50).
Take `CO[C@H]1/C=C/O[C@@]2(C)Oc3c(C)c(O)c4c(O)c(c(/C=N/N5CCN(C)CC5)c(O)c4c3C2=O)NC(=O)/C(C)=C\C=C\[C@H](C)[C@H](O)[C@@H](C)[C@@H](O)[C@@H](C)[C@H](OC(C)=O)[C@@H]1C` [Rifampicin, reference compound]: the IC50 in test [1] (setting [17]) is above 50 µM; in test [2] (setting [9]), 0.012 µM; in test [3] (setting [18]), 0.013 µM; in test [4] (setting [13]) it was 0.007 µM; in test [5] (setting [19]), 1.1 µM. The IC90 was above 50 µM in test [1] (setting [17]); 0.031 µM in test [2] (setting [9]); 0.033 µM in test [3] (setting [18]); 0.016 µM in test [4] (setting [13]); 3.8 µM in test [5] (setting [19]). In addition, the MIC was above 50 µM in test [1] (setting [17]); 0.022 µM (≈ 0.0181 µg/mL) in test [2] (setting [9]); 0.024 µM (≈ 0.0198 µg/mL) in test [3] (setting [18]); 0.013 µM (≈ 0.0107 µg/mL) in test [4] (setting [13]); 5.3 µM (≈ 4.36 µg/mL) in test [5] (setting [19]).
Take `CCOC(=O)c1cc(C(=O)c2ccc(Br)cc2)n2ccc(-c3cc[n+](CC(=O)c4cccc(OC)c4)cc3)cc12` [Compound 6h, 4-(3-(4-Bromobenzoyl)-1-(ethoxycarbonyl)indolizine-7-yl)-1-(2-(3-methoxyphenyl)-2-oxoethyl)pyridin-1-ium]: the half-maximal inhibitory concentration (IC50) in test [1] (setting [6]) came out at 15 µM; in test [2] (setting [9]), 18 µM; in test [3] (setting [10]) it was 26 µM; in test [4] (setting [13]), 16 µM; in test [5] (setting [14]), 13 µM. Further, the concentration for an effect of 90% (IC90) in test [1] (setting [7]) was above 50 µM; in test [2] (setting [9]) it was above 50 µM; in test [3] (setting [11]), above 50 µM; in test [4] (setting [13]) it was 43 µM; in test [5] (setting [15]) it was 26 µM. For the same compound, the MIC in test [1] (setting [8]) is above 50 µM; in test [2] (setting [9]), above 50 µM; in test [3] (setting [12]), above 50 µM; in test [4] (setting [13]) it was above 50 µM; in test [5] (setting [16]), 24 µM.
For the compound `CCOC(=O)c1cc(C(=O)c2ccc(Cl)cc2)n2ccc(-c3cc[n+](CC(=O)c4ccc(C)cc4)cc3)cc12` [Compound 6i], the half-maximal inhibitory concentration (IC50) in test [1] (setting [6]) is 12 µM; in test [2] (setting [9]), 13 µM; in test [3] (setting [10]) it was 11 µM; in test [4] (setting [13]), 9.8 µM; in test [5] (setting [14]), 7.7 µM. Also, the concentration for an effect of 90% (IC90) in test [1] (setting [7]) worked out at 22 µM; in test [2] (setting [9]), 23 µM; in test [3] (setting [11]) it was 28 µM; in test [4] (setting [13]), 20 µM; in test [5] (setting [15]) it was 15 µM. Moreover, the MIC in test [1] (setting [8]) came out at 22 µM; in test [2] (setting [9]), 22 µM; in test [3] (setting [12]), 27 µM; in test [4] (setting [13]), 20 µM; in test [5] (setting [16]), 15 µM.

As a reminder, the IC50 is the concentration at which inhibition is half-maximal. A word on the IC90: it is the point of the concentration-response curve where the effect stands at 90%.
